# Source: US20230040770A1, “HETEROCYCLIC COMPOUND AND USE THEREOF” (TAKEDA PHARMACEUTICAL COMPANY LIMITED, priority 2019, published 2023)
# Target: T1, human orexin type 2 receptor (Homo sapiens, UniProt O43614)
# T1 construct: expressed in transfected cells
# T1 sequence (O43614 1-444): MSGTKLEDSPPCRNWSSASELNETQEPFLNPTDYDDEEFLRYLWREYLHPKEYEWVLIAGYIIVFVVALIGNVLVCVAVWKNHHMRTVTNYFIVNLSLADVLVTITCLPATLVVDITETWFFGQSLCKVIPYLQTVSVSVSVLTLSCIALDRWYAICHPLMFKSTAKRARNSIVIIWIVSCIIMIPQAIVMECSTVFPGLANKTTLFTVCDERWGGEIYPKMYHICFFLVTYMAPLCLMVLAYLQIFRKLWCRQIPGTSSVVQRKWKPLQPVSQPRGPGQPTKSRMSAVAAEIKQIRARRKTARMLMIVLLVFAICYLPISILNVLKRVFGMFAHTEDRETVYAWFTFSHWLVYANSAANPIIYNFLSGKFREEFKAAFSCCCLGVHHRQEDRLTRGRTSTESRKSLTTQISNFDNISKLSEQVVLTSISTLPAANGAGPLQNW
# Experiment: Measurement of orexin type 2 receptor agonist activity (calcium indicator fluorescence, CHO cells forcibly expressing human OX2 receptor)
# Assay type: cell-based
# Conditions: compound at 3 μM; 0% = DMSO, 100% = orexin A (human) 10 nM
# Procedure, shortened: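 Agonist response normalised between vehicle (0%) and orexin A at 10 nM final (100%), from kinetic Fluo-4 calcium signals recorded for about 2 min after compound addition. Cells: stable human OX2R CHO clone, dye-loaded 30 min at 37 °C plus 30 min at room temperature.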
row,Compound,"OX2R agonist activity (3 μM, %) [%]"
1,"CCS(=O)(=O)N[C@@H]1[C@H](Cc2cccc(-c3cccc(C(F)F)c3)c2F)N(C(=O)C2CCO2)CC1(F)F (stereo partly drawn) [Example 504, N-[(S,3R)-2-{[3′-(difluoromethyl)-2-fluoro[1,1′-biphenyl]-3-yl]methyl}-4,4-difluoro-1-(oxetane-2-carbonyl)pyrrolidin-3-yl]ethanesulfonamide]",90
2,"CCS(=O)(=O)N[C@@H]1[C@H](Cc2cccc(-c3cccc(C(F)F)c3)c2F)N(C(=O)C2CC(F)C2)CC1(F)F (stereo partly drawn) [Example 505, N-[(2S,3R)-2-{[3′-(difluoromethyl)-2-fluoro[1,1′-biphenyl]-3-yl]methyl}-4,4-difluoro-1-(3-fluorocyclobutane-1-carbonyl)pyrrolidin-3-yl]ethanesulfonamide]",88
3,"CCS(=O)(=O)N[C@@H]1[C@H](Cc2cccc(-c3cccc(C(F)F)c3)c2F)N(C(=O)C2CC(F)C2)CC1(F)F (stereo partly drawn) [Example 506, N-[(2S,3R)-2-{[3′-(difluoromethyl)-2-fluoro[1,1′-biphenyl]-3-yl]methyl}-4,4-difluoro-1-(3-fluorocyclobutane-1-carobnyl)pyrrolidin-3-yl]ethanesulfonamide]",100
4,"CCS(=O)(=O)N[C@@H]1[C@H](Cc2cccc(-c3cccc(C(F)F)c3)c2F)N(C(=O)C(C)C)CC1(F)F [Example 507, N-[(2S,3R)-2-{[3′-(difluoromethyl)-2-fluoro[1,1′-biphenyl]-3-yl]methyl}-4,4-difluoro-1-(2-methylpropanoyl)pyrrolidin-3-yl]ethanesulfonamide]",97
5,"CCS(=O)(=O)N[C@@H]1[C@H](Cc2cccc(-c3cccc(C(F)F)c3)c2F)N(C(=O)C2CC2)CC1(F)F [Example 508, N-[(2S,3R)-1-(cyclopropanecarbonyl)-2-{[3′-(difluoromethyl)-2-fluoro[1,1′-biphenyl]-3-yl]methyl}-4,4-difluoropyrrolidin-3-yl]ethanesulfonamide]",96
6,"CCS(=O)(=O)N[C@@H]1[C@H](Cc2cccc(-c3cccc(C(F)F)c3)c2F)N(C(=O)C23CC(C2)C3)CC1(F)F [Example 509, N-[(2S,3R)-1-(bicyclo[1.1.1]pentane-1-carbonyl)-2-{[3′-(difluoromethyl)-2-fluoro[1,1′-biphenyl]-3-yl]methyl}-4,4-difluoropyrrolidin-3-yl]ethanesulfonamide]",85
7,"CCS(=O)(=O)N[C@@H]1[C@H](Cc2cccc(-c3cccc(OC)c3)c2F)N(C(=O)C23CC(C2)C3)CC1(F)F [Example 510, N-{(2S,3R)-1-(bicyclo[1.1.1]pentane-1-carbonyl)-4,4-difluoro-2-[(2-fluoro-3′-methoxy[1,1′-biphenyl]-3-yl)methyl]pyrrolidin-3-yl}ethanesulfonamdie]",97
8,"CCS(=O)(=O)N[C@@H]1[C@H](Cc2cccc(-c3cccc(OC)c3)c2F)N(C(=O)C(C)C)CC1(F)F [Example 511, N-[(2S,3R)-4,4-difluoro-2-[(2-fluoro-3′-methoxy[1,1′-biphenyl]-3-yl)methyl]-1-(2-methylpropanoyl)pyrrolidin-3-yl]ethanesulfonamide]",98
9,"CCS(=O)(=O)N[C@@H]1[C@H](Cc2cccc(-c3cccc(OC)c3)c2F)N(C(=O)C2CC2)CC1(F)F [Example 512, N-{(2S,3R)-1-(cyclopropanecarbonyl)-4,4-difluoro-2-[(2-fluoro-3′-methoxy[1,1′-biphenyl]-3-yl)methyl]pyrrolidin-3-yl}ethanesulfonamide]",95
10,"CCS(=O)(=O)N[C@@H]1[C@H](Cc2cccc(-c3cccc(OC)c3)c2F)N(C(=O)C2(O)CCC2)CC1(F)F [Example 513, N-[(2S,3R)-4,4-difluoro-2-[(2-fluoro-3′-methoxy[1,1′-biphenyl]-3-yl)methyl]-1-(1-hydroxycyclobutane-1-carbonyl)pyrrolidin-3-yl]ethanesulfonamide]",97
11,"CCS(=O)(=O)N[C@H]1[C@@H](F)CN(C(=O)C2CC2)[C@H]1Cc1cccc(-c2cccc(C)c2)c1F [Example 514, N-{(2S,3R,4S)-1-(cyclopropanecarbonyl)-4-fluoro-2-[(2-fluoro-3′-methyl[1,1′-biphenyl]-3-yl)methyl]pyrrolidin-3-yl}ethanesulfonamide]",95
12,"CCS(=O)(=O)N[C@H]1[C@@H](F)CN(C(=O)C2CC2)[C@H]1Cc1cccc(-c2cc(C)cc(F)c2)c1F [Example 515, N-{(2S,3R,4S)-1-(cyclopropanecarbonyl)-2-[(2,3′-difluoro-5′-methyl[1,1′-biphenyl]-3-yl)methyl]-4-fluoropyrrolidin-3-yl}ethanesulfonamide]",98
13,"CCS(=O)(=O)N[C@H]1[C@@H](F)CN(C(=O)C2CC2)[C@H]1Cc1cccc(-c2cccc(Cl)c2)c1F [Example 516, N-[(2S,3R,4S)-2-[(3′-chloro-2-fluoro[1,1′-biphenyl]-3-yl)methyl]-1-(cyclopropanecarbonyl)-4-fluoropyrrolidin-3-yl]ethanesulfonamide]",102
14,"CCS(=O)(=O)N[C@H]1[C@@H](F)CN(C(=O)C2CC2)[C@H]1Cc1cccc(-c2cc(F)cc(Cl)c2)c1F [Example 517, N-[(2S,3R,4S)-2-[(3′-chloro-2,5′-difluoro[1,1′-biphenyl]-3-yl)methyl]-1-(cyclopropanecarbonyl)-4-fluoropyrrolidin-3-yl]ethanesulfonamide]",100
15,"CCS(=O)(=O)N[C@H]1[C@@H](F)CN(C(=O)C2CC2)[C@H]1Cc1cccc(-c2ccccc2F)c1F [Example 518, N-{(2S,3R,4S)-1-(cyclopropanecarbonyl)-2-[(2,2′-difluoro[1,1′-biphenyl]-3-yl)methyl]-4-fluoropyrrolidin-3-yl}ethanesulfonamide]",98
16,"CCS(=O)(=O)N[C@H]1[C@@H](F)CN(C(=O)C2CC2)[C@H]1Cc1cccc(-c2cccc(C)c2F)c1F [Example 519, N-{(2S,3R,4S)-1-(cyclopropanecarbonyl)-2-[(2,2′-difluoro-3′-methyl[1,1′-biphenyl]-3-yl)methyl]-4-fluoropyrrolidin-3-yl}ethanesulfonamide]",98
17,"CCS(=O)(=O)N[C@H]1[C@@H](F)CN(C(=O)C2CC2)[C@H]1Cc1cccc(-c2cccc(Cl)c2F)c1F [Example 520, N-[(2S,3R,4S)-2-[(3′-chloro-2,2′-difluoro[1,1′-biphenyl]-3-yl)methyl]-1-(cyclopropanecarbonyl)-4-fluoropyrrolidin-3-yl]ethanesulfonamide]",94
18,"Cc1cccc(-c2cccc(C[C@H]3[C@@H](NS(=O)(=O)C4CC4)C(F)(F)CN3C(=O)N(C)C)c2F)c1F [Example 521, (2S,3R)-3-[(cyclopropanesulfonyl)amino]-2-[(2,2′-difluoro-3′-methyl[1,1′-biphenyl]-3 yl)methyl]-4,4-difluoro-N,N-dimethylpyrrolidine-1-carboxamide]",97
19,"Cc1cc(F)cc(-c2cccc(C[C@H]3[C@@H](NS(=O)(=O)C4CC4)C(F)(F)CN3C(=O)N(C)C)c2F)c1 [Example 522, (2S,3R)-3-[(cyclopropanesulfonyl)amino]-2-[(2,3′-difluoro-5′-methyl[1,1′-biphenyl]-3-yl)methyl]-4,4-difluoro-N,N-dimethylpyrrolidine-1-carboxamide]",97
20,"CN(C)C(=O)N1CC(F)(F)[C@H](NS(=O)(=O)C2CC2)[C@@H]1Cc1cccc(-c2cccc(F)c2)c1F [Example 523, (2S,3R)-3-[(cyclopropanesulfonyl)amino]-2-[(2,3′-difluoro[1,1′-biphenyl]-3-yl)methyl]-4,4-difluoro-N,N-dimethylpyrrolidine-1-carboxamide]",86
21,"CN(C)C(=O)N1CC(F)(F)[C@H](NS(=O)(=O)C2CC2)[C@@H]1Cc1cccc(-c2cc(F)cc(F)c2)c1F [Example 524, (2S,3R)-3-[(cyclopropanesulfonyl)amino]-4,4-difluoro-N,N-dimethyl-2-[(2,3′,5′-trifluoro[1,1′-biphenyl]-3-yl)methyl]pyrrolidine-1-carboxamide]",87
22,"O=C(N1CCC1)N1CC(F)(F)[C@H](NS(=O)(=O)C2CC2)[C@@H]1Cc1cccc(-c2cc(F)cc(F)c2)c1F [Example 525, N-{(2S,3R)-1-(azetidine-1-carbonyl)-4,4-difluoro-2-[(2,3′,5′-trifluoro[1,1′-biphenyl]-3-yl)methyl]pyrrolidin-3-yl]cyclopropanesulfonamide]",85
23,"Cc1cc(F)cc(-c2cccc(C[C@H]3[C@@H](NS(=O)(=O)N(C)C)C(F)(F)CN3C(=O)N(C)C)c2F)c1 [Example 526, (2S,3R)-2-[(2,3′-difluoro-5′-methyl[1,1′-biphenyl]-3-yl)methyl]-3-[(dimethyslulfamoyl)amino]-4,4-difluoro-N,N-dimethylpyrrolidine-1-carboxamide]",83
24,"Cc1cccc(-c2cccc(C[C@H]3[C@@H](NS(=O)(=O)C4CC4)C(F)(F)CN3C(=O)N3CCC3)c2F)c1F [Example 527, N-{(2S,3R)-1-(azetidine-1-carbonyl)-2-[(2,2′-difluoro-3′-methyl[1,1′-biphenyl]-3-yl)methyl]-4,4-difluoropyrrolidin-3-yl}cyclopropanesulfonamide]",95
